Measured values: paper PMC4769088, “Antifungal Activity and Action Mechanism of Histatin 5-Halocidin Hybrid Peptides against Candida ssp” (PLoS ONE, 2016)
Like-named read-outs stand apart in the source and are kept apart here. Where a SMILES comes first, the peptide text is derived from it. Bridges are numbered along the chain shown (N, C = ends). Roman numbers before positions name the chains, in order. Where no end group is shown, it is not given here.

What was measured:
[1] = test system: C.albicans CCARM 14022; type: cell-based, Candida albicans
Method: (§1) To determine the candidacidal activity of the peptides, we used Candida strains obtained from the Culture collection of antimicrobial resistant microbes at Seoul Women’s University in Korea. These included three Candida albicans (CCARM 14020, 14021, 14022), Candida guillermondi and Candida tropicalis. In addition, Candida albicans SC5413 was kindly provided by Dr Jeong-Yoon Kim at the Department of Microbiology & Molecular Biology, Chungnam University, Korea. Yeast were cultured overnight at 30°C in 10 ml of yeast extract-peptone-dextrose (YPD) broth (Qbiogene), then diluted in 10 ml of YPD broth to OD600 = 0.2 and grown for an additional 4 h with shaking at 30°C until OD600 = 0.8 in order to obtain mid-log phase cultures. The peptides (Hst 5, P113, HHP1, HHP2, PH1, PH2, di-PH1, di-PH2, WP1, di-WP2, di-15Hc and di-18Hc) in this study were synthesized by using standard solid-phase synthesis protocols and were purified by reversed-phase high-performance liquid chromatography at Anygen Inc. (Korea). FITC-labeled peptides (F-Hst5, F-P113, F-HHP1, F-di-PH2, F-di-WP2 and F-di-18Hc) were also synthesized by 6-aminohexnoic acid linker at Anygen (Korea) for confocal experiments.
(§2) The candidacidal activities of the peptides were tested by using standard microdilution plate assays, radial diffusion assays and broth dilution assay slightly modified from the procedure recommended by the National Committee for Clinical Laboratory Standards. For the candidacidal assays, C. albicans cells were grown in YPD medium and washed twice with 10 mM sodium phosphate buffer (NaPB; Na2HPO4, NaH2PO4, pH 7.4). The cells (1 x 10^6) were then mixed with different concentrations of peptides and incubated at 30°C with constant shaking for 60 min. For energy depletion experiments, cells were pre-incubated with 10 mM NaPB containing 5 mM NaN3 at 30°C for 60 min before the addition of peptides. The cell suspensions were diluted in 10 mM NaPB and aliquots of 500 cells were spread onto YPD agar plates then incubated for 24 h at 30°C to visualize the surviving colonies. Cell survival was expressed as a percentage of that for the control, and the loss of viability was calculated as [1 x (number of colonies from peptide-treated cells/number of colonies from control cells)] x 100. Candidacidal assays were performed in triplicate. For the radial diffusion assay, C. albicans cells were grown in YPD medium overnight and washed twice with 10 mM NaPB. Washed yeast-phase C. albicans cells (1 x 10^6 CFU) were trapped in thin underlay gels containing 9 mM sodium phosphate, 1 mM sodium citrate buffer, 1% (wt/vol) agarose (A6013; Sigma), and 0.3 mg of Sabouraud dextrose broth (Difco)/ml. After incubation at 37°C for 3 h, a 10 ml overlay gel of 1% agarose and 6% Sabouraud dextrose broth was poured on the underlay gel and then the plates were incubated overnight at 37°C. The clear-zone diameters were measured to the nearest 0.1 mm and graphed against the peptide concentration. Zone diameters were expressed in units (0.1 mm = 1 unit). For the broth dilution assay, the Candida strains were cultured in LYM broth for 18 h at 30°C. The numbers of yeasts were counted using a hemocytometer. Stock peptide solutions were prepared to a concentration of 320 μg/ml in distilled water, and were then serially diluted twofold, to 5 μg/ml. 100 μl aliquots of the diluted culture media containing candida cells (1 x 10^3) were dispensed into the wells of 96-well polypropylene microtiter plates (Costar 3879, Corning, NY), to which peptide solution (11 μl) was then added. In the experiments conducted to assess the candidacidal activity of peptides in the presence of salt, we used LYM supplemented with 150 mM NaCl for the culture medium, which was mixed with the peptide solution. The antifungal activities were evaluated after 24 h of incubation at 30°C by the observation of visible turbidity the wells. […]

[2] = test system: C.albicans CCARM 14021; type: cell-based, Candida albicans
Method: as §1, §2

[3] = test system: C.albicans CCARM 14020; type: cell-based, Candida albicans; conditions: CCARM 14020, 24 h
Method: as §1, §2

[4] = test system: C.albicans SC5413; type: cell-based, Candida albicans; conditions: SC5413, 24 h
Method: as §1, §2

[5] = test system: all tested Candida strains; type: cell-based; conditions: 4 h
Method: as §1, §2

[6] = test system: C. guilliermondi CCARM 14018; type: cell-based; conditions: CCARM 14018, 24 h
Method: as §1, §2

[7] = broth dilution, LYM broth, 24 h at 30°C, interval a–b

CC(C)C[C@H](NC(=O)CNC(=O)[C@H](Cc1c[nH]cn1)NC(=O)[C@H](Cc1c[nH]cn1)NC(=O)[C@H](CCCNC(=N)N)NC(=O)[C@H](CCCCN)NC(=O)[C@H](C)N)C(=O)N[C@@H](CC(N)=O)C(=O)N[C@@H](CSSC[C@H](NC(=O)[C@H](CC(N)=O)NC(=O)[C@H](CC(C)C)NC(=O)CNC(=O)[C@H](Cc1c[nH]cn1)NC(=O)[C@H](Cc1c[nH]cn1)NC(=O)[C@H](CCCNC(=N)N)NC(=O)[C@H](CCCCN)NC(=O)[C@H](C)N)C(=O)N[C@@H](C)C(=O)N[C@@H](CCCCN)C(=O)NCC(=O)N[C@H](C(=O)N[C@@H](CC(C)C)C(=O)N[C@@H](C)C(N)=O)C(C)C)C(=O)N[C@@H](C)C(=O)N[C@@H](CCCCN)C(=O)NCC(=O)N[C@H](C(=O)N[C@@H](CC(C)C)C(=O)N[C@@H](C)C(N)=O)C(C)C [di-PH1] (I: H-AKRHHGLNCAKGVLA-NH2 / II: H-AKRHHGLNCAKGVLA-NH2; disulfide I:9-II:9 (inferred); N-terminus assumed)
MICs ([1]; CCARM 14022, 24 h): 4 to 8 µg/mL | MICs ([2]; CCARM 14021, 24 h): 4 to 8 µg/mL | MICs [3]: 16 to 32 µg/mL | MICs [4]: 16 to 32 µg/mL

AKRHHGLNCAKFH-NH2 [PH2]
MICs ([1]; CCARM 14022, 24 h): 8 to 16 µg/mL | MICs ([2]; CCARM 14021, 24 h): 1 to 2 µg/mL | MICs [3]: 1 to 2 µg/mL | MICs [4]: 1 to 2 µg/mL

AKRHHGLNCAKGVLA-NH2 [PH1]
MICs ([1]; CCARM 14022, 24 h): 8 to 16 µg/mL | MICs ([2]; CCARM 14021, 24 h): 8 to 16 µg/mL | MICs [3]: 16 to 32 µg/mL | MICs [4]: 16 to 32 µg/mL

ALLHHGYKRKFH-NH2 [HHP2]
MICs [1, 7]: 32< μg/ml | MICs [2, 7]: 32< μg/ml | MICs [3]: 8 to 16 µg/mL | MICs [4]: 16 to 32 µg/mL

WLNAKRHHGYKRKFH-NH2 [WP1]
MICs [1, 7]: 32< μg/ml | MICs ([2]; CCARM 14021, 24 h): 8 to 16 µg/mL | MICs [3]: 4 to 8 µg/mL | MICs [4]: 4 to 8 µg/mL

WLNALLHHGYKRKFH-NH2 [HHP1]
MIC values [5]: 2 to 4 µg/mL | MICs [6]: 1 to 2 µg/mL | MICs ([1]; CCARM 14022, 24 h): 4 to 8 µg/mL | MICs ([2]; CCARM 14021, 24 h): 2 to 4 µg/mL | MICs [3]: 2 to 4 µg/mL | MICs [4]: 2 to 4 µg/mL
